Data from US9695155B2, “Herbicidal substituted pyrimidinyloxy benzene compounds” (E. I. DU PONT DE NEMOURS AND COMPANY, priority 2013, dated 2017).

What was measured:
[1] = system: barnyardgrass; test: Test C postemergence; format: in vivo, Echinochloa crus-galli; conditions: for Barnyardgrass plant response rating: 31 g ai/ha, 13 to 15 days; for Barnyardgrass plant response rating / Plant response rating, Barnyardgrass: scale 0 to 100 (0 no effect, 100 complete control)
Outline: (§1)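 Seeds were sown in loam–sand blend and sprayed preemergence, while plants at 1- to 4-leaf stage (2–18 cm) in peat-based medium received postemergence sprays; test chemicals were formulated in a non-phytotoxic solvent with surfactant. After 13–15 days in a greenhouse, injury was rated visually against controls, 0 (no effect) to 100 (complete control).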

[2] = system: velvetleaf; test: Test C postemergence; format: in vivo, Abutilon theophrasti; conditions: for Velvetleaf plant response rating: 31 g ai/ha; for Velvetleaf plant response rating / Plant response rating, Velvetleaf: scale 0 to 100 (0 no effect, 100 complete control)
Outline: as §1

[3] = system: wheat; test: Test A postemergence; format: in vivo, Triticum aestivum; conditions: 0 to 100 scale where 0 is no effect and 100 is complete control; for Wheat plant response rating: 125 g ai/ha; for Plant response rating, Wheat: 500 g ai/ha
Outline: (§2)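 Greenhouse pot test, loam/sand soil. Formulation: non-phytotoxic solvent mix plus surfactant. Pre: directed spray onto soil after sowing. Post: plants at 1–2 leaf, 2–10 cm. Rated visually vs untreated controls at ~10 d, 0 (no effect) to 100 (complete control).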

[4] = system: galium; test: Test C postemergence; format: in vivo, Galium aparine; conditions: for Galium plant response rating: 31 g ai/ha; for Galium plant response rating / Plant response rating, Galium: scale 0 to 100 (0 no effect, 100 complete control)
Outline: as §1

[5] = system: wheat, winter; test: Test C postemergence; format: in vivo, Triticum aestivum; conditions: for Wheat plant response rating: 31 g ai/ha; for Wheat plant response rating / Plant response rating, Wheat: scale 0 to 100 (0 no effect, 100 complete control)
Outline: as §1

[6] = system: velvetleaf; test: Test C preemergence; format: in vivo, Abutilon theophrasti; conditions: for Velvetleaf plant response rating: preemergence; for Plant response rating, Velvetleaf: Preemergence, scale 0 to 100, 0 no effect, 100 complete control
Outline: as §1

[7] = system: Italian ryegrass; test: Test C postemergence; format: in vivo, Lolium multiflorum; conditions: for Ryegrass, Italian plant response rating: 31 g ai/ha; for Ryegrass, Italian plant response rating / Plant response rating, Ryegrass, Italian: scale 0 to 100 (0 no effect, 100 complete control)
Outline: as §1

[8] = system: corn; test: Test C preemergence; format: in vivo, Zea mays; conditions: for Corn plant response rating: preemergence; for Plant response rating, Corn: Preemergence, scale 0 to 100, 0 no effect, 100 complete control
Outline: as §1

[9] = system: blackgrass; test: Test C preemergence; format: in vivo, Alopecurus myosuroides; conditions: for Blackgrass plant response rating: preemergence; for Plant response rating, Blackgrass: Preemergence, scale 0 to 100, 0 no effect, 100 complete control
Outline: as §1

[10] = system: pigweed; test: Test C preemergence; format: in vivo, Amaranthus retroflexus; conditions: for Pigweed plant response rating: preemergence; for Plant response rating, Pigweed: Preemergence, scale 0 to 100, 0 no effect, 100 complete control
Outline: as §1

[11] = system: oilseed rape; test: Test C postemergence; format: in vivo, Brassica napus; conditions: for Oilseed Rape plant response rating: 31 g ai/ha; for Oilseed Rape plant response rating / Plant response rating, Oilseed Rape: scale 0 to 100 (0 no effect, 100 complete control)
Outline: as §1

[12] = system: lambsquarters; test: Test C postemergence; format: in vivo, Chenopodium album; conditions: for Lambsquarters plant response rating: 31 g ai/ha; for Lambsquarters plant response rating / Plant response rating, Lambsquarters: scale 0 to 100 (0 no effect, 100 complete control)
Outline: as §1

[13] = system: velvetleaf; test: Test A preemergence; format: in vivo, Abutilon theophrasti; conditions: for Velvetleaf plant response rating (0 to 100 scale): 125 g ai/ha; for Velvetleaf plant response rating: 500 g ai/ha, 0 to 100 scale where 0 is no effect and 100 is complete control
Outline: as §2

[14] = system: sedge, umbrella; test: Test B flooded paddy test; format: in vivo, Cyperus difformis; conditions: Flood, 250 g ai/ha; 0 to 100 scale where 0 is no effect and 100 is complete control
Outline: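 Plants at 2-leaf stage; pots flooded to 3 cm above soil and compound applied directly into paddy water, depth held throughout. After 13 to 15 days in greenhouse, visual rating versus controls on 0 (no effect) to 100 (complete control) scale.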

[15] = system: corn; test: Test A preemergence; format: in vivo, Zea mays; conditions: for Corn plant response rating: 500 g ai/ha
Outline: as §2

[16] = 16 g ai/ha, postemergence, 0 is no effect, 100 is complete control
[17] = 125 g ai/ha, postemergence, visual rating
[18] = postemergence, visual rating, 13 to 15 days
[19] = 16 g ai/ha, scale 0 to 100 (0 no effect, 100 complete control)
[20] = 62 g ai/ha, scale 0 (no effect) to 100 (complete control)
[21] = 125 g ai/ha, scale 0 (no effect) to 100 (complete control)
[22] = 0 to 100 scale where 0 is no effect and 100 is complete control
[23] = Postemergence, 62 g ai/ha, 13 to 15 days
[24] = 250 g ai/ha, scale 0 (no effect) to 100 (complete control)

SMILES: FC(F)(F)c1cnn(-c2c(Cl)cccc2Oc2ncc(Cl)cn2)c1 [Compound 167]
- Plant response rating (0 to 100), Barnyardgrass [1, 16]: 5
- Barnyardgrass plant response rating ([1]; postemergence, visual rating): 5
- Plant response rating, Barnyardgrass [1, 17]: 10
- Plant response rating, Barnyardgrass ([1]; Postemergence, 62 g ai/ha): 10
- Plant response rating (0 to 100), Velvetleaf [2, 16]: 35
- Velvetleaf plant response rating [2, 18]: 40
- Plant response rating, Velvetleaf [2, 17]: 70
- Plant response rating, Velvetleaf ([2]; Postemergence, 62 g ai/ha): 40
- Wheat plant response rating [3]: 20
- Plant response rating, Wheat [3]: 60
- Plant response rating (0 to 100), Galium [4, 16]: 70
- Galium plant response rating [4, 18]: 70
- Plant response rating, Galium [4, 17]: 90
- Plant response rating, Galium ([4]; Postemergence, 62 g ai/ha): 70
- Plant response rating (0 to 100), Wheat [5, 16]: 0
- Wheat plant response rating [5, 18]: 0
- Plant response rating, Wheat [5, 17]: 5
- Plant response rating, Wheat ([5]; Postemergence, 62 g ai/ha): 5
- Velvetleaf plant response rating [6, 19]: 45
- Velvetleaf plant response rating [6, 20]: 100
- Velvetleaf plant response rating [6, 21]: 100
- Plant response rating (0 to 100), Ryegrass, Italian [7, 16]: 0
- Ryegrass, Italian plant response rating [7, 18]: 10
- Plant response rating, Ryegrass, Italian [7, 17]: 30
- Plant response rating, Ryegrass, Italian ([7]; Postemergence, 62 g ai/ha): 5
- Corn plant response rating [8, 19]: 0
- Corn plant response rating [8, 20]: 25
- Corn plant response rating [8, 21]: 60
- Plant response rating, Corn ([8]; 31 g ai/ha): 5
- Blackgrass plant response rating [9, 19]: 30
- Blackgrass plant response rating [9, 20]: 90
- Blackgrass plant response rating [9, 21]: 90
- Plant response rating, Blackgrass ([9]; 31 g ai/ha): 30
- Pigweed plant response rating [10, 19]: 100
- Pigweed plant response rating [10, 20]: 100
- Pigweed plant response rating [10, 21]: 100
- Plant response rating (0 to 100), Oilseed Rape [11, 16]: 15
- Oilseed Rape plant response rating [11, 18]: 50
- Plant response rating, Oilseed Rape [11, 17]: 70
- Plant response rating, Oilseed Rape ([11]; Postemergence, 62 g ai/ha): 85
- Plant response rating (0 to 100), Lambsquarters [12, 16]: 80
- Lambsquarters plant response rating [12, 18]: 90
- Plant response rating, Lambsquarters [12, 17]: 100
- Plant response rating, Lambsquarters ([12]; Postemergence, 62 g ai/ha): 98
- Velvetleaf plant response rating (0 to 100 scale) [13]: 80
- Velvetleaf plant response rating [13]: 100
- Plant response rating, Sedge, Umbrella [14]: 98
- Plant response rating, Corn ([15]; 125 g ai/ha, 0 to 100 scale where 0 is no effect and 100 is complete control): 10
- Corn plant response rating [15, 22]: 40

SMILES: N#Cc1cnn(-c2c(Oc3ncc(Cl)cn3)cccc2C(F)F)c1 [Compound 236]
- Plant response rating (0 to 100), Barnyardgrass [1, 16]: 5
- Barnyardgrass plant response rating ([1]; postemergence, visual rating): 5
- Plant response rating, Barnyardgrass [1, 17]: 10
- Plant response rating, Barnyardgrass ([1]; Postemergence, 62 g ai/ha): 5
- Plant response rating (0 to 100), Velvetleaf [2, 16]: 55
- Velvetleaf plant response rating [2, 18]: 65
- Plant response rating, Velvetleaf [2, 17]: 80
- Plant response rating, Velvetleaf [2, 23]: 85
- Wheat plant response rating [3]: 50
- Plant response rating, Wheat [3]: 100
- Plant response rating (0 to 100), Galium [4, 16]: 60
- Galium plant response rating [4, 18]: 75
- Plant response rating, Galium [4, 17]: 85
- Plant response rating, Galium [4, 23]: 80
- Plant response rating (0 to 100), Wheat [5, 16]: 0
- Wheat plant response rating [5, 18]: 0
- Plant response rating, Wheat [5, 17]: 0
- Plant response rating, Wheat [5, 23]: 0
- Velvetleaf plant response rating [6, 19]: 65
- Velvetleaf plant response rating [6, 21]: 100
- Plant response rating, Velvetleaf ([6]; 62 g ai/ha): 100
- Plant response rating (0 to 100), Ryegrass, Italian [7, 16]: 0
- Ryegrass, Italian plant response rating [7, 18]: 0
- Plant response rating, Ryegrass, Italian [7, 17]: 0
- Plant response rating, Ryegrass, Italian [7, 23]: 0
- Corn plant response rating [8, 19]: 0
- Corn plant response rating [8, 21]: 90
- Plant response rating, Corn ([8]; 62 g ai/ha): 10
- Blackgrass plant response rating [9, 19]: 5
- Blackgrass plant response rating [9, 21]: 90
- Plant response rating, Blackgrass ([9]; 62 g ai/ha): 90
- Pigweed plant response rating [10, 19]: 100
- Pigweed plant response rating [10, 21]: 100
- Plant response rating, Pigweed ([10]; 62 g ai/ha): 100
- Plant response rating (0 to 100), Oilseed Rape [11, 16]: 30
- Oilseed Rape plant response rating [11, 18]: 10
- Plant response rating, Oilseed Rape [11, 17]: 65
- Plant response rating, Oilseed Rape [11, 23]: 30
- Plant response rating (0 to 100), Lambsquarters [12, 16]: 80
- Lambsquarters plant response rating [12, 18]: 85
- Plant response rating, Lambsquarters [12, 17]: 90
- Plant response rating, Lambsquarters [12, 23]: 75
- Velvetleaf plant response rating (0 to 100 scale) [13]: 100
- Velvetleaf plant response rating [13]: 100
- Plant response rating, Sedge, Umbrella [14]: 100
- Corn plant response rating (0 to 100 scale) ([15]; 125 g ai/ha): 20
- Corn plant response rating [15, 22]: 90

SMILES: N#Cc1cccc(Oc2ncc(Cl)cn2)c1-n1cc(I)cn1 [Compound 204]
- Barnyardgrass plant response rating ([1]; postemergence, visual rating): 5
- Plant response rating, Barnyardgrass [1, 17]: 5
- Plant response rating (0 to 100), Barnyardgrass ([1]; 250 g ai/ha, postemergence): 35
- Plant response rating, Barnyardgrass ([1]; Postemergence, 62 g ai/ha): 10
- Velvetleaf plant response rating [2, 18]: 35
- Plant response rating, Velvetleaf [2, 17]: 60
- Plant response rating (0 to 100), Velvetleaf ([2]; 250 g ai/ha, postemergence): 70
- Plant response rating, Velvetleaf [2, 23]: 40
- Wheat plant response rating [3]: 40
- Plant response rating, Wheat [3]: 70
- Galium plant response rating [4, 18]: 70
- Plant response rating, Galium [4, 17]: 75
- Plant response rating (0 to 100), Galium ([4]; 250 g ai/ha, postemergence): 100
- Plant response rating, Galium [4, 23]: 75
- Wheat plant response rating [5, 18]: 5
- Plant response rating, Wheat [5, 17]: 10
- Plant response rating (0 to 100), Wheat ([5]; 250 g ai/ha, postemergence): 10
- Plant response rating, Wheat [5, 23]: 5
- Velvetleaf plant response rating [6, 21]: 98
- Velvetleaf plant response rating [6, 24]: 98
- Plant response rating, Velvetleaf ([6]; 62 g ai/ha): 85
- Ryegrass, Italian plant response rating [7, 18]: 5
- Plant response rating, Ryegrass, Italian [7, 17]: 10
- Plant response rating (0 to 100), Ryegrass, Italian ([7]; 250 g ai/ha, postemergence): 10
- Plant response rating, Ryegrass, Italian [7, 23]: 5
- Corn plant response rating [8, 21]: 5
- Corn plant response rating [8, 24]: 35
- Plant response rating, Corn ([8]; 62 g ai/ha): 0
- Blackgrass plant response rating [9, 21]: 90
- Blackgrass plant response rating [9, 24]: 95
- Plant response rating, Blackgrass ([9]; 62 g ai/ha): 80
- Pigweed plant response rating [10, 21]: 98
- Pigweed plant response rating [10, 24]: 98
- Plant response rating, Pigweed ([10]; 62 g ai/ha): 100
- Oilseed Rape plant response rating [11, 18]: 40
- Plant response rating, Oilseed Rape [11, 17]: 85
- Plant response rating (0 to 100), Oilseed Rape ([11]; 250 g ai/ha, postemergence): 75
- Plant response rating, Oilseed Rape [11, 23]: 70
- Lambsquarters plant response rating [12, 18]: 85
- Plant response rating, Lambsquarters [12, 17]: 90
- Plant response rating (0 to 100), Lambsquarters ([12]; 250 g ai/ha, postemergence): 95
- Plant response rating, Lambsquarters [12, 23]: 80
- Velvetleaf plant response rating (0 to 100 scale) [13]: 80
- Velvetleaf plant response rating [13]: 100
- Plant response rating, Sedge, Umbrella [14]: 90
- Corn plant response rating (0 to 100 scale) ([15]; 125 g ai/ha): 0
- Corn plant response rating [15, 22]: 30
